In one test the test system is Acar19. It counts as binding, great reed warbler Acrocephalus arundinaceus. Conditions: Table S5, half-life estimated from dissociation in scintillation proximity assay.
A further test concerns Acar3. It counts as binding, great reed warbler Acrocephalus arundinaceus. To be noted: for Stability T½ of Acar3 in complex with the peptide: Table S1, top 94 PSCPL-scoring peptides, SPA, 10µM peptide, 125I β2m, folding over night at 18°C, dissociation measured up to 24 hours at 37°C; for Stability T½ (h), peptide - Acar3: Table S5, half-life estimated from dissociation in scintillation proximity assay.

In the case of AFHQLVQVI [9-mer peptide], in the test on Acar19, the “Stability T½ (h), peptide - Acar19” value is 0.3 h.
Same read-out and setting: next, AYAGLFTPL [9-mer peptide]: 0.4 h; DAAKNQVAM [9-mer peptide]: 0.2 h; DAAVVFPPV [9-mer peptide]: 10.0 h.
The same measure, in the same setting: the figure for DALLNEENL [9-mer peptide] is 2.0 h; for DAMENPLSL [9-mer peptide] it is 0.2 h.
Consider DASFNASAI [9-mer peptide], for which, in the test with Acar19, the “Stability T½ (h), peptide - Acar19” value is 1.0 h.
On to DAVRNAAAI [9-mer peptide], for which the “Stability T½ (h), peptide - Acar19” value in the test on Acar19 is on record as 0.3 h.
On to DFGYATMAK [9-mer peptide], for which the “Stability T½ (h), peptide - Acar19” value in the test with Acar19 is recorded as 0.3 h.
Turning to DFIANTETI [9-mer peptide], in the test on Acar19, the “Stability T½ (h), peptide - Acar19” value was 4.7 h.
Regarding DFISMYFPW [9-mer peptide], in the test with Acar19, the “Stability T½ (h), peptide - Acar19” value was 0.5 h.
On the same count and under the same terms, the figure for DFNEAIQAY [9-mer peptide] is 0.3 h.
Same read-out and setting: the figure for DHIPIINTL [9-mer peptide] is 0.3 h; for DIKLIDIAL [9-mer peptide] it is 3.7 h; for DIQKLVGKL [9-mer peptide] it is 0.4 h.
For the sequence DISPTNIPL [9-mer peptide], the “Stability T½ (h), peptide - Acar19” value with Acar19 is given as 0.2 h.
The same measure, in the same setting: next, DMNLEQWSV [9-mer peptide]: 0.4 h; DMSTNAEYF [9-mer peptide]: 0.2 h; DMWEHAFYL [9-mer peptide]: 0.3 h.
The same measure, in the same setting: the figure for DPNPQEMVL [9-mer peptide] is 0.1 h.
Same read-out and setting: next, DPNPQEVVL [9-mer peptide]: 0.4 h; DPSGAYFAW [9-mer peptide]: 0.1 h.
For DQIRNMSVI [9-mer peptide], in the test on Acar19, the “Stability T½ (h), peptide - Acar19” value is recorded as 0.3 h.
As for DSFPNSVTI [9-mer peptide], in the test with Acar19, the “Stability T½ (h), peptide - Acar19” value is 1.4 h.
Consider DSIMLTATF [9-mer peptide], for which, in the test on Acar19, the “Stability T½ (h), peptide - Acar19” value is listed as 1.5 h.
For the sequence DTAKAFAYL [9-mer peptide], the “Stability T½ (h), peptide - Acar19” value with Acar19 is on record as 0.5 h.
On the same count and under the same terms, the figure for DTDPLPVVF [9-mer peptide] is 0.2 h; for DTETLTTMF [9-mer peptide] it is 0.1 h.
In the case of DTFGVIDTM [9-mer peptide], the “Stability T½ (h), peptide - Acar19” value in the test on Acar19 was 0.2 h.
On the same count and under the same terms, next, DTRAIDQFF [9-mer peptide]: 2.3 h; DVAKIEAPL [9-mer peptide]: 11.4 h.
Turning to DVSPILEAY [9-mer peptide], the “Stability T½ (h), peptide - Acar19” value in the test with Acar19 is 0.1 h.
The same measure, in the same setting: next, DVVPMVTQM [9-mer peptide]: 0.6 h; DWMERIEDF [9-mer peptide]: 1.4 h.
As for DWSGYSGSF [9-mer peptide], the “Stability T½ (h), peptide - Acar19” value in the test on Acar19 is 0.3 h.
The same measure, in the same setting: the figure for DYAMHGTVF [9-mer peptide] is 2.4 h.
Still for that read-out and setting: next, DYLQCVLQI [9-mer peptide]: 6.6 h; DYLQYVLQI [9-mer peptide]: 0.5 h.
The same measure, in the same setting: next, EAAGIAACL [9-mer peptide]: 0.6 h; EAAKNVECI [9-mer peptide]: 0.4 h.
On to EDFEIFYNL [9-mer peptide], for which the “Stability T½ (h), peptide - Acar19” value in the test with Acar19 is given as 0.4 h.
Still for that read-out and setting: the figure for EFKQILTDF [9-mer peptide] is 3.6 h; for ENALLVALF [9-mer peptide] it is 0.1 h; for ETFRLLRSF [9-mer peptide] it is 0.1 h.
The same measure, in the same setting: the figure for EYAPFARLL [9-mer peptide] is 1.1 h; for EYARQVQMI [9-mer peptide] it is 0.4 h.
The same measure, in the same setting: the figure for FFSPVIASL [9-mer peptide] is 0.9 h; for FSIMIYFTF [9-mer peptide] it is 0.2 h.
Regarding FSPRLCRPF [9-mer peptide], the “Stability T½ (h), peptide - Acar19” value in the test with Acar19 is given as 0.4 h.
As to FWPQHFGLI [9-mer peptide], the “Stability T½ (h), peptide - Acar19” value in the test on Acar19 is recorded as 0.1 h.
FYPPVLQPI [9-mer peptide]: the “Stability T½ (h), peptide - Acar19” value in the test on Acar19 was 0.3 h.
Still for that read-out and setting: next, GFNKLRSTL [9-mer peptide]: 0.4 h.
Same read-out and setting: the figure for GFPSLESSF [9-mer peptide] is 0.1 h.
Same read-out and setting: the figure for GYAWIDFDI [9-mer peptide] is 0.2 h.
For the sequence VMMAKRPLI [9-mer peptide], in the test on Acar3, the “Stability T½ of Acar3 in complex with the peptide” value (from here on “Stability T½ of Acar3 in complex”) is 30 min and the “Stability T½ (h), peptide - Acar3” value was 0.5 h.
For VMPLLVWLF [9-mer peptide] the same measures were 114 min and 1.9 h.
On the same counts, the results for VPMEKLKAL [9-mer peptide] are 84 min and 1.4 h.
Regarding VQTAAAVVF [9-mer peptide], the “Stability T½ (h), peptide - Acar3” value with Acar3 is 0.2 h.
VVKQLPASF [9-mer peptide]: the “Stability T½ (h), peptide - Acar3” value in the test with Acar3 was 0.1 h.
Regarding WLAKSFFEL [9-mer peptide], in the test on Acar3, the “Stability T½ (h), peptide - Acar3” value is 0.2 h.
WMACNSAAF [9-mer peptide]: in the test with Acar3, the “Stability T½ of Acar3 in complex” value was found to be 54 min and the “Stability T½ (h), peptide - Acar3” value is on record as 0.9 h.
As for WMMAMRYPI [9-mer peptide], in the test with Acar3, the “Stability T½ of Acar3 in complex” value worked out at 186 min and the “Stability T½ (h), peptide - Acar3” value is reported as 3.1 h.
For WQLTSIWPI [9-mer peptide] the same measures were 42 min and 0.7 h.
For YLLEMLWRL [9-mer peptide], in the test on Acar3, the “Stability T½ of Acar3 in complex” value was 24 min and the “Stability T½ (h), peptide - Acar3” value is given as 0.4 h.
Take YLMPYSVYI [9-mer peptide]: the “Stability T½ (h), peptide - Acar3” value with Acar3 was 0.1 h.
YLQQNTHTL [9-mer peptide]: in the test with Acar3, the “Stability T½ of Acar3 in complex” value came to 30 min and the “Stability T½ (h), peptide - Acar3” value is on record as 0.5 h.
In the case of YLYLRPYAL [9-mer peptide], in the test on Acar3, the “Stability T½ of Acar3 in complex” value is 144 min and the “Stability T½ (h), peptide - Acar3” value is 2.4 h.
For YMHGSIHEV [9-mer peptide] the same measures were 54 min and 0.9 h.
Consider YMKKRYEEF [9-mer peptide], for which the “Stability T½ (h), peptide - Acar3” value in the test on Acar3 is 0.2 h.
Regarding YMWECPDFF [9-mer peptide], in the test on Acar3, the “Stability T½ of Acar3 in complex” value is 156 min and the “Stability T½ (h), peptide - Acar3” value is 2.6 h.
For YMWLGARYL [9-mer peptide] the same measures were 24 min and 0.4 h.
Consider YWMGGTTYF [9-mer peptide], for which, in the test on Acar3, the “Stability T½ of Acar3 in complex” value worked out at 48 min and the “Stability T½ (h), peptide - Acar3” value is 0.8 h.
